{"source": "patent US10670605B2", "about": "“Cysteine reactive probes and uses thereof” (The Scripps Research Institute, priority 2015, dated 2020)", "key": {"[1]": {"target": "T1, RELB C109 (Q01201) (Homo sapiens, UniProt Q01201)", "T1 sequence (Q01201 1-579)": "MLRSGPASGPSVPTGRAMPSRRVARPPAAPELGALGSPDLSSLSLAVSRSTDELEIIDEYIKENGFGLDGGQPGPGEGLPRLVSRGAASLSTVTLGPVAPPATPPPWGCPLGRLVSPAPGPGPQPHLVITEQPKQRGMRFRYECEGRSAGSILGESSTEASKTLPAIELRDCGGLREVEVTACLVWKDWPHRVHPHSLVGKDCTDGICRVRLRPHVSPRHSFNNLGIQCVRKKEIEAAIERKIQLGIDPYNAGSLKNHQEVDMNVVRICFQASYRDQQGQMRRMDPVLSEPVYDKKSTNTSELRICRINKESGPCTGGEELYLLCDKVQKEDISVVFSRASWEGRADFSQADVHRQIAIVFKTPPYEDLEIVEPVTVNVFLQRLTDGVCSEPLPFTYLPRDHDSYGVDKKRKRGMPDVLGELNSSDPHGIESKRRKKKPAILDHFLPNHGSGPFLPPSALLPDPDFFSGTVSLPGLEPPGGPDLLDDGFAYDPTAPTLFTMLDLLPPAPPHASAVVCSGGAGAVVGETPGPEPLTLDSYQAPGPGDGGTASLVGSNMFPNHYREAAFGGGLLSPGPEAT", "test": "Competitive isoTOP-ABPP, cell lysates", "assay_type": "binding", "conditions": "for R value (DMSO/fragment): 500 μM"}, "[2]": {"target": "T2, VCPIP1 C219 (Q96JH7) (Homo sapiens, UniProt Q96JH7)", "T2 sequence (Q96JH7 1-1222)": "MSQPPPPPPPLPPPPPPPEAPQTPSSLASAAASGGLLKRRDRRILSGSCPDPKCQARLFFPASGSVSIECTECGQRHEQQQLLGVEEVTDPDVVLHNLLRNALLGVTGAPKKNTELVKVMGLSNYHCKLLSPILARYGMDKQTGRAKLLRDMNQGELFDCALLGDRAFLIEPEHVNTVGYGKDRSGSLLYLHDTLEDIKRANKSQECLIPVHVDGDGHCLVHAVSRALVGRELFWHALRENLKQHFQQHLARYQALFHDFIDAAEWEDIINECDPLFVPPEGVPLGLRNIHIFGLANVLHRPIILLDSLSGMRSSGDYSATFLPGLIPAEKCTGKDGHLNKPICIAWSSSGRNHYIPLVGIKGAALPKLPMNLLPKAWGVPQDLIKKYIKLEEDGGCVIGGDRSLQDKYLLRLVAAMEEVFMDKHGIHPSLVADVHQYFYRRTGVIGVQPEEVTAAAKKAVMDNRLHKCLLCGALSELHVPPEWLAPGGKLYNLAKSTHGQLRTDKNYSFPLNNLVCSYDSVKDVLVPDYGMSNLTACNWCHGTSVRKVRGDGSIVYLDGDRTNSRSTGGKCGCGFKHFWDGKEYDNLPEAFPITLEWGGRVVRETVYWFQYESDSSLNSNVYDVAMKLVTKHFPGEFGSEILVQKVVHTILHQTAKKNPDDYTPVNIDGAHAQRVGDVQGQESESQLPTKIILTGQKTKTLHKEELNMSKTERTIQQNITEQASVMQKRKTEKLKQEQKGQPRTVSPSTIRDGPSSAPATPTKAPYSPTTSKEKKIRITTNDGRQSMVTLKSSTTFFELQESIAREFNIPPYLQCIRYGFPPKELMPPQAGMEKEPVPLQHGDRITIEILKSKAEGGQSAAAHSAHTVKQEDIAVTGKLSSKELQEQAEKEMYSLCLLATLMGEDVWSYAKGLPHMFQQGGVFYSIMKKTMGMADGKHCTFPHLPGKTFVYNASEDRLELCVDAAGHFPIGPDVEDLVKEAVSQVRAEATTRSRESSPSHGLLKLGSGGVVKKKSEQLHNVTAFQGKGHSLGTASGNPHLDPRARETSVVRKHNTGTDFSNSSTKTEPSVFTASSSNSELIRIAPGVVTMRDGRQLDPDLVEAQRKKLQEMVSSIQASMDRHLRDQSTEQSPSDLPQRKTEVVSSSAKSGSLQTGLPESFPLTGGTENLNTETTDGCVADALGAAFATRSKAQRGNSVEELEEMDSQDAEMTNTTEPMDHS", "test": "Competitive isoTOP-ABPP, cell lysates", "assay_type": "binding", "conditions": "for R value (DMSO/fragment): 500 μM; for isoTOP-ABPP reactivity ratio, Q96JH7_C219 / isoTOP-ABPP reactivity profile ratio, Q96JH7_C219: 500 μm, in-vitro_ramos"}}, "data": [{"smiles": "COc1ccc2c(c1)CCCN2C(=O)CCl", "note": "[compound 2]", "values": [{"measurement": "R value (DMSO/fragment)", "setting": "[1]; in vitro, MDA-MB-231", "value": 20.0}, {"measurement": "R value (DMSO/fragment)", "setting": "[1]; invitro, ramos", "value": 20.0}, {"measurement": "R value (DMSO/fragment)", "setting": "[2]; invitro, ramos", "value": 1.1}]}, {"smiles": "O=C(CCl)Nc1cc(C(F)(F)F)cc(C(F)(F)F)c1", "note": "[compound 3]", "values": [{"measurement": "R value (DMSO/fragment)", "setting": "[2]; in vitro, MDA-MB-231", "value": 20.0}, {"measurement": "R value (DMSO/fragment)", "setting": "[2]; invitro, ramos", "value": 15.1}]}, {"smiles": "C=CC(=O)N(Cc1cccnc1)c1ccc(Oc2ccccc2)c(C(F)(F)F)c1", "note": "[compound 15]", "values": [{"measurement": "isoTOP-ABPP ratio (reactivity profile), Q96JH7_C219", "setting": "[2]; 500 μm in-vitro ramos", "value": 1.3}]}, {"smiles": "O=C(CCl)N1CCC(C(O)(c2ccccc2)c2ccccc2)CC1", "note": "[compound 20]", "values": [{"measurement": "isoTOP-ABPP ratio (reactivity profile), Q96JH7_C219", "setting": "[2]; 500 μm in-vitro ramos", "value": 1.2}]}, {"smiles": "N#C/C(=C\\c1cc(C(F)(F)F)cc(C(F)(F)F)c1)C(N)=O", "note": "[compound 23]", "values": [{"measurement": "isoTOP-ABPP ratio (reactivity profile), Q01201_C109", "setting": "[1]; 500 μm in-vitro ramos", "value": 1.3}]}, {"smiles": "CC(Br)C(=O)Nc1cc(C(F)(F)F)cc(C(F)(F)F)c1", "note": "(centres unmarked) [compound 24]", "values": [{"measurement": "isoTOP-ABPP ratio (reactivity profile), Q01201_C109", "setting": "[1]; 500 μm in-vitro ramos", "value": 1.5}, {"measurement": "isoTOP-ABPP ratio (reactivity profile), Q96JH7_C219", "setting": "[2]; 500 μm in-vitro ramos", "value": 1.2}]}, {"smiles": "CC(C)CCOCCNC(=O)CCl", "note": "[compound 27]", "values": [{"measurement": "isoTOP-ABPP ratio (reactivity profile), Q01201_C109", "setting": "[1]; 500 μm in-vitro ramos_231", "value": 0.8}, {"measurement": "isoTOP-ABPP ratio (reactivity profile), Q96JH7_C219", "setting": "[2]; 500 μm in-vitro ramos_231", "value": 1.7}]}, {"smiles": "COc1ccccc1OCCNC(=O)CCl", "note": "[compound 28]", "values": [{"measurement": "isoTOP-ABPP ratio (reactivity profile), Q01201_C109", "setting": "[1]; 500 μm in-vitro ramos", "value": 1.1}]}, {"smiles": "C=CC(=O)N(Cc1cccnc1)c1cc(C(F)(F)F)cc(C(F)(F)F)c1", "note": "[compound 31]", "values": [{"measurement": "isoTOP-ABPP reactivity ratio, Q96JH7_C219", "setting": "[2]", "value": 1.0}]}, {"smiles": "CC(C)(C)c1cc(NC(=O)CCl)on1", "note": "[compound 32]", "values": [{"measurement": "isoTOP-ABPP reactivity ratio, Q01201_C109", "setting": "[1]; 500 μm, in-vitro_ramos", "value": 20.0}]}, {"smiles": "C=CC(=O)Nc1cc(F)c(N2CCN(C(=O)OC(C)(C)C)CC2)c(F)c1", "note": "[compound 38]", "values": [{"measurement": "isoTOP-ABPP reactivity ratio, Q96JH7_C219", "setting": "[2]", "value": 1.8}]}, {"smiles": "C=CC(=O)Nc1cc(C)c(Br)cc1C", "note": "[compound 40]", "values": [{"measurement": "isoTOP-ABPP reactivity ratio, Q96JH7_C219", "setting": "[2]", "value": 1.9}]}, {"smiles": "O=C(CCl)Nc1cccc2ncccc12", "note": "[compound 51]", "values": [{"measurement": "isoTOP-ABPP reactivity profile ratio, Q01201_C109", "setting": "[1]; 500 μm, in-vitro_ramos", "value": 1.6}, {"measurement": "isoTOP-ABPP reactivity profile ratio, Q96JH7_C219", "setting": "[2]", "value": 2.3}]}, {"smiles": "O=C(CCl)Nc1ccc(-c2ccccc2)cc1", "note": "[compound 52]", "values": [{"measurement": "isoTOP-ABPP reactivity profile ratio, Q96JH7_C219", "setting": "[2]", "value": 1.6}]}]}
